Reference: patent US10259779B2 (WAYNE STATE UNIVERSITY, priority 2016, dated 2019)

Tests used:
[1] = system: HDAC proteins in HeLa cell lysates; assay: Global HDAC inhibition with HeLa cell lysates (HDAC-Glo I/II substrate); assay type: biochemical; settings: for Deacetylase activity (%): Hela Lysate; for IC50: HeLa cell lysates
Protocol: HDAC activity was measured using the commercially available HDAC-Glo™ I/II substrate (Promega).
Lysates were prepared according to the reported procedure.^28 HeLa-S3 cells (purchased from Biovest) were lysed in lysis buffer (1×10^9 cells in 10 mL lysis buffer; 50 mM Tris-HCl, pH 8.0, 10% glycerol, 150 mM NaCl, 0.5% Triton X-100, and 1× protease inhibitor cocktail (GenDEPOT)) with rotation at 4° C. for 30 min. Cell debris was removed by centrifugation at 12000 rpm at 4° C. for 30 min. Protein concentration of the supernatant was determined using Bio-Rad protein assay (BioRad, Bradford reagent). Lysates were stored at −80° C.
To measure global HDAC inhibition, HeLa cell lysates (1 μg total protein) were mixed with HDAC-Glo™ buffer in polystyrene 96-well half area white plate (Corning) to a final volume of 12 μL, followed by addition of inhibitors in DMSO (0.5 μL) and incubation for 15 min at room temperature without rocking. An uninhibited control reaction was also included that contained DMSO (0.5 μL). Finally, deacetylase activity was measured using the HDAC-Glo™ assay kit (Promega) as per the manufacturer's protocol. Specifically, the HDAC-Glo™ substrate (1 mL) and developer ([…]) were first premixed to form the HDAC-Glo™ reagents. Then, to monitor deacetylase activity, HDAC-Glo™ reagent (5 μL) and HDAC-Glo™ buffer (7.5 μL) were added to each well (25 μL total volume) and incubated for 35 min at room temperature without rocking. The deacetylase activity was measured as luminescent signal using a GeniosPlus Fluorimeter (Tecan) at optimal gain. The concentrations of inhibitors reported in the dose-dependent studies (Table 2) are final concentrations after addition of HDAC-Glo™ reagent HDAC-Glo™ buffer.

in vitro = settings: human, Jurkat cells (leukemia cell line)
U937 cells = assay: In vitro cell growth inhibition, MTT assay, U937; assay type: cell-based; settings: Homo sapiens, U-937, U937 cell line
[2] = system: acetyl-α-tubulin (HDAC6 substrate) in U937 cells; assay: In cellulo selectivity testing, western blot of acetyl-α-tubulin; assay type: cell-based; settings: 18 hours, SAHA 5 μM, 1f 20-60 μM, compared to DMSO control

| IC50 [1] | EC50 (U937 cells) | Structure (SMILES) | Deacetylase activity (%) ([1]; 2.4 × 10^−5 M) | Deacetylase activity (%) ([1]; 3.0 × 10^−6 M) | Deacetylase activity (%) ([1]; 4.8 × 10^−5 M) | Deacetylase activity (%) ([1]; 6.0 × 10^−6 M) | Deacetylase activity (%) ([1]; […] 10^−5 M) | viability at 44 h, 1 µM (in vitro) | viability at 44 h, 10 µM (in vitro) | Deacetylase activity (%) ([1]; 1.0 × 10^−4 M) | Deacetylase activity (%) ([1]; 1.25 × 10^−5 M) | Deacetylase activity (%) ([1]; 2.0 × 10^−4 M) | Deacetylase activity (%) ([1]; 5.0 × 10^−5 M) | levels of acetyl-α-tubulin (AcTub), western blot [2] |
| --- | --- | --- | --- | --- | --- | --- | --- | --- | --- | --- | --- | --- | --- | --- |
| 14 ± 1 µM |  | CCC(CCCC(=O)Nc1ccccc1)CCC(=O)NO (racemic) [Compound 1b, 4-ethyl-N^1-hydroxy-N^8-phenyloctanediamide] | 31 ± 2% | 92 ± 1% | 12 ± 1% | 82 ± 7% | 53 ± 3% |  |  |  |  |  |  |  |
| 60 ± 1 µM | 16 µM | CCCCCCC(CCCC(=O)Nc1ccccc1)CCC(=O)NO (racemic) [Compound 1d, 4-hexyl-N^1-hydroxy-N^8-phenyloctanediamide] |  |  |  |  | 73 ± 2% | 69 ± 4% | 39 ± 6% | 35 ± 3% | 87 ± 1% | 21 ± 3% | 56 ± 2% |  |
| 62 ± 1 µM | 28 µM | O=C(CCC(CCCC(=O)Nc1ccccc1)Cc1ccccc1)NO (racemic) [Compound 1f, 4-benzyl-N^1-hydroxy-N^8-phenyloctanediamide] |  |  |  |  | 74 ± 5% | 89 ± 20% | 97 ± 4% | 35 ± 5% | 88 ± 4% | 19 ± 2% | 58 ± 4% | dose-dependent increase |
